Laboratory results taken from US11369565B2, “Amino-pyrimidine skeletal muscle modulators” (Cytokinetics, Inc., priority 2010, dated 2022).

test system: rabbit skeletal myofibrils (approximately 90% fast fibers); assay: Activation of fast skeletal myofibrils (PUMA coupled-enzyme ATPase assay at pCa25); format: biochemical; conditions: concentration at which the compound increased the enzymatic activity by 40%; calcium at pCa25; PM12 buffer pH 6.8
Outline: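 In pH 6.8 PM12 buffer (12 mM Pipes, 2 mM MgCl2, 1 mM DTT), ADP from myosin regenerated via pyruvate kinase/lactate dehydrogenase, with absorbance change at 340 nm from NADH oxidation as read-out. Calcium set at pCa25; Triton-washed rabbit skeletal myofibrils (about 90% fast fibres) used.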

Compound	Mean AC1.4
CC(C)(CNc1ncc2c(n1)CCNC2)c1ccc(F)cc1 [[2-(4-fluorophenyl)-2-methylpropyl]-5,6,7,8-tetrahydropyridino[4,3-d]pyrimidin-2-ylamine]	D (D=>20 uM)
CC(C)(Nc1ncc(-c2nc(CN)cs2)cn1)c1ncccc1F [{5-[4-(aminomethyl)(1,3-thiazol-2-yl)]pyrimidin-2-yl}[1-(3-fluoro(2-pyridyl))-isopropyl]amine]	D (D=>20 uM)
NC(=O)c1cnc(-c2cnc(NCC3(c4ncccc4F)CCC3)nc2)s1 [2-[2-({[(3-fluoro-2-pyridyl)cyclobutyl]methyl}amino)pyrimidin-5-yl]-1,3-thiazole-5-carboxamide]	A (A=<1 uM)
CC(C)(Nc1ncc(-c2nc(CC(N)=O)cs2)cn1)c1ncccc1F [2-[2-(2-{[1-(3-fluoro(2-pyridyl))-isopropyl]amino}pyrimidin-5-yl)-1,3-thiazol-4-yl]acetamide]	D (D=>20 uM)
CC(C)(Nc1ncc(-c2ncc(CNC(=O)C3(N)CC3)s2)cn1)c1ncccc1F [(aminocyclopropyl)-N-{[2-(2-{[1-(3-fluoro(2-pyridyl))-isopropyl]amino}pyrimidin-5-yl)(1,3-thiazol-5-yl)]methyl)carboxamide]	D (D=>20 uM)
CC(=O)NCc1cnc(-c2cnc(NC(C)(C)c3ncccc3F)nc2)s1 [N-{[2-(2-{[1-(3-fluoro(2-pyridyl))-isopropyl]amino}pyrimidin-5-yl)-1,3-thiazol-5-yl]methyl}acetamide]	D (D=>20 uM)
CC(C)(Nc1ncc(C#N)cn1)c1ncccc1Cl [2-{[1-(3-chloro(2-pyridyl))-isopropyl]amino}pyrimidine-5-carbonitrile]	D (D=>20 uM)
CC(C)(Nc1ncc(-n2cc(CNC(=O)CCN)cn2)cn1)c1ncccc1Cl [3-amino-N-{[1-(2-{[1-(3-chloro(2-pyridyl))-isopropyl]amino}pyrimidin-5-yl)pyrazol-4-yl]methyl}propanamide]	B (B=1-10 uM)
CC(C)(Nc1ncc(-c2nc(CNC(=O)[C@H]3CCCN3)cs2)cn1)c1ncccc1F [((2R)pyrrolidin-2-yl)-N-{[2-(2-{[1-(3-fluoro(2-pyridyl))-isopropyl]amino}pyrimidin-5-yl)(1,3-thiazo-4-yl)]methyl}carboxamide]	D (D=>20 uM)
CC(C)(Nc1ncc(-c2cnc(C(N)=O)s2)cn1)c1ncccc1Cl [5-(2-{[1-(3-chloro(2-pyridyl))-isopropyl]amino}pyrimidin-5-yl)-1,3-thiazole-2-carboxamide]	B (B=1-10 uM)
NC(=O)c1cc(-c2cnc(NC3(c4ccc(F)cc4)CCC3)nc2)ccn1 [4-(2-{[(4-fluorophenyl)cyclobutyl]amino}pyrimidin-5-yl)pyridine-2-carboxamide]	B (B=1-10 uM)
Fc1cccnc1C1(Nc2ncc3ccccc3n2)CCC1 [[(3-fluoro(2-pyridyl))cyclobutyl]quinazolin-2-ylamine]	D (D=>20 uM)
ethyl 1-[(2-{[2-(4-fluorophenyl)-2- methylpropyl]amino}pyrimidin-5- yl)carbonylamino] cyclopropanecarboxylate	D (D=>20 uM)
Fc1cc2[nH]ncc2cc1-c1cnc(NC2(c3ncccc3F)CCC2)nc1 [[5-(6-fluoro(1H-indazol-5-yl))pyrimidin-2-yl][(3-fluoro(2-pyridyl))cyclobutyl]amine]	B (B=1-10 uM)
CC(C)(CNc1ncc(-c2cc(C(N)=O)ccc2F)cn1)c1ncccc1F [4-fluoro-3-(2-{[2-(3-fluoro(2-pyridyl))-2-methylpropyl]amino}pyrimidin-5-yl)benzamide]	B (B=1-10 uM)
NC(=O)c1ccc(F)c(-c2cnc(NCC3(c4ncccc4F)CC(F)C3)nc2)c1 (centres unmarked) [4-fluoro-3-[2-({[3-fluoro-1-(3-fluoro(2-pyridyl))cyclobutyl]methyl}amino)pyrimidin-5-yl]benzamide]	A (A=<1 uM)
O=C(O)c1csc(-c2cnc(NCC3(c4ncccc4F)CCC3)nc2)n1 [2-[2-({[(3-fluoro-2-pyridyl)cyclobutyl]methyl}amino)pyrimidin-5-yl]-1,3-thiazole-4-carboxylic acid]	C (C=10-20 uM)
O=C(O)c1ccn(-c2cnc(NC[C@]3(c4ncccc4F)C[C@H](F)C3)nc2)c1 [1-[2-({[3-fluoro-1-(3-fluoro(2-pyridyl))cyclobutyl]methyl}amino)pyrimidin-5-yl]pyrrole-3-carboxylic acid]	D (D=>20 uM)
CC(C)(Nc1ncc(-c2ncc(C(N)=O)s2)cn1)c1ncccc1Cl [2-(2-{[1-(3-chloro(2-pyridyl))-isopropyl]amino}pyrimidin-5-yl)-1,3-thiazole-5-carboxamide]	B (B=1-10 uM)

Compound	Mean AC1.4
NC(=O)c1ccc(F)c(-c2cnc(N[C@]3(c4ncccc4Cl)C[C@H](F)C3)nc2)c1 [3-(2-{[1-(3-chloro(2-pyridyl))-3-fluorocyclobutyl]amino}pyrimidin-5-yl)-4-fluorobenzamide]	A (A=<1 uM)
COc1ncc(-c2cnc(NC(C)(C)c3ncccc3Cl)nc2)cc1C(N)=O [5-(2-{[1-(3-chloro(2-pyridyl))-isopropyl]amino}pyrimidin-5-yl)-2-methoxypyridine-3-carboxamide]	B (B=1-10 uM)
NC(=O)Cc1cnc(-c2cnc(NC[C@]3(c4ncccc4Cl)C[C@H](F)C3)nc2)s1 [2-{2-[2-({[1-(3-chloro(2-pyridyl))-3-fluorocyclobutyl]methyl}amino)pyrimidin-5-yl]-1,3-thiazol-5-yl}acetamide]	B (B=1-10 uM)
N#Cc1cnc(NC2(c3ccc(F)cc3)CCC2)nc1 [2-{[(4-fluorophenyl)cyclobutyl]amino} pyrimidine-5-carbonitrile]	C (C=10-20 uM)
N#Cc1ccnc(-c2cnc(NC[C@]3(c4ncccc4F)C[C@H](F)C3)nc2)n1 [2-[2-({[3-fluoro-1-(3-fluoro(2-pyridyl))cyclobutyl]methyl}amino)pyrimidin-5-yl]pyrimidine-4-carbonitrile]	B (B=1-10 uM)
N#Cc1cnc(NC2(c3ncccc3F)CCC2)nc1 [2-{[(3-fluoro-2-pyridyl)cyclobutyl]amino} pyrimidine-5-carbonitrile]	D (D=>20 uM)
O=C(O)c1cccc(-c2cnc(NC[C@]3(c4ncccc4F)C[C@H](F)C3)nc2O)c1 [3-[2-({[3-fluoro-1-(3-fluoro(2-pyridyl))cyclobutyl]methyl}amino)-4-hydroxypyrimidin-5-yl] benzoic acid]	D (D=>20 uM)
Nc1ncc(-c2cnc(NC[C@]3(c4ncccc4F)C[C@H](F)C3)nc2)[nH]c1=O [3-amino-6-[2-({[3-fluoro-1-(3-fluoro(2-pyridyl))cyclobutyl]methyl}amino)pyrimidin-5-yl] hydropyrazin-2-one]	B (B=1-10 uM)
Cc1cccnc1C(C)(C)Nc1ncc(-c2cc(C(N)=O)ccc2F)cn1 [4-fluoro-3-(2-{[1-methyl-1-(3-methyl(2-pyridyl))ethyl]amino}pyrimidin-5-yl)benzamide]	B (B=1-10 uM)
CC(C)(Nc1ncc(-c2cc(C(N)=O)n[nH]2)cn1)c1ncccc1Cl [5-(2-{[1-(3-chloro(2-pyridyl))-isopropyl]amino}pyrimidin-5-yl)pyrazole-3-carboxamide]	C (C=10-20 uM)
CSc1cccnc1C(C)(C)Nc1ncc(-c2cccc(C(N)=O)c2)cn1 [3-(2-{[1-methyl-1-(3-methylthio(2-pyridyl))ethyl]amino}pyrimidin-5-yl)benzamide]	B (B=1-10 uM)
CC(=O)NCc1cnc(-c2cnc(NCC3(c4ncccc4Cl)CCC3)nc2)s1 [N-({2-[2-({[(3-chloro-2-pyridyl)cyclobutyl]methyl}amino)pyrimidin-5-yl]-1,3-thiazol-5-yl}methyl)acetamide]	A (A=<1 uM)
CC(C)(Nc1ncc(-c2ccc3[nH]nc(N)c3c2)cn1)c1ncccc1F [[5-(3-amino(1H-indazol-5-yl))pyrimidin-2-yl][1-(3-fluoro(2-pyridyl))-isopropyl]amine]	A (A=<1 uM)
C[S+]([O-])c1ccccc1C(C)(C)Nc1ncc(-c2cccc(C(N)=O)c2)cn1 (centres unmarked) [3-(2-(2-(2-(methylsulfinyl)phenyl)propan-2-ylamino)pyrimidin-5-yl)benzamide]	D (D=>20 uM)
CC(C)(Nc1ncc(-c2ncc(CNC(=O)[C@@H]3CCCN3)s2)cn1)c1ncccc1F [((2S)pyrrolidin-2-yl)-N-{[2-(2-{[1-(3-fluoro(2-pyridyl))-isopropyl]amino}pyrimidin-5-yl)(1,3-thiazol-5-yl)]methyl}carboxamide]	C (C=10-20 uM)
CNC(=O)c1ccc(F)c(-c2cnc(NC[C@]3(c4ncccc4F)C[C@H](F)C3)nc2)c1 [{4-fluoro-3-[2-({[3-fluoro-1-(3-fluoro(2-pyridyl))cyclobutyl]methyl}amino)pyrimidin-5-yl]phenyl}-N-methylcarboxamide]	A (A=<1 uM)
CC(C)(Nc1nccc(-c2nccs2)n1)c1cccc(OC(F)F)n1 [{1-[6-(difluoromethoxyl)(2-pyridyl)]-isopropyl)(4-(1,3-thiazol-2-yl)]pyrimidin-2-yl)amine]	C (C=10-20 uM)
CC(C)(Nc1ncc(-c2cccc(C(N)=O)c2)cn1)c1ccc(S(C)(=O)=O)cc1 [3-[2-({1-methyl-1-[4-(methylsulfonyl)phenyl]ethyl}amino)pyrimidin-5-yl)benzamide]	D (D=>20 uM)
CC(C)(Nc1ncc(-c2cncc(C(N)=O)c2)cn1)c1ncccc1Cl [5-(2-{[1-(3-chloro(2-pyridyl))-isopropyl]amino}pyrimidin-5-yl)pyridine-3-carboxamide]	B (B=1-10 uM)
